29 molecules from patent US12378224B2 (Dong-A Socio Holdings Co., Ltd., priority 2016, dated 2025) can be followed below.

For orientation: IC50 means the concentration needed to halve the response being measured.

The target of the assay is human MER (528-end) (Homo sapiens (Human), UniProt Q12866). The assay is described as follows: HTRF Kinase Activity Biochemical Assay (KinEASE-TK). The following applies: 10 uM ATP. The gist of the method: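 Activity read-out is the HTRF ratio (665 nm over 620 nm emission, ×10,000; excitation 340 nm) after 1 h detection with 0.375 nM Eu3+-cryptate anti-TK antibody plus 0.062 uM SA-XL665. Preceding kinase step: human MER (528-end), biotinylated TK substrate, 1 h, room temperature.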
Chain of human MER (528-end) (Q12866 528-999 limits assumed): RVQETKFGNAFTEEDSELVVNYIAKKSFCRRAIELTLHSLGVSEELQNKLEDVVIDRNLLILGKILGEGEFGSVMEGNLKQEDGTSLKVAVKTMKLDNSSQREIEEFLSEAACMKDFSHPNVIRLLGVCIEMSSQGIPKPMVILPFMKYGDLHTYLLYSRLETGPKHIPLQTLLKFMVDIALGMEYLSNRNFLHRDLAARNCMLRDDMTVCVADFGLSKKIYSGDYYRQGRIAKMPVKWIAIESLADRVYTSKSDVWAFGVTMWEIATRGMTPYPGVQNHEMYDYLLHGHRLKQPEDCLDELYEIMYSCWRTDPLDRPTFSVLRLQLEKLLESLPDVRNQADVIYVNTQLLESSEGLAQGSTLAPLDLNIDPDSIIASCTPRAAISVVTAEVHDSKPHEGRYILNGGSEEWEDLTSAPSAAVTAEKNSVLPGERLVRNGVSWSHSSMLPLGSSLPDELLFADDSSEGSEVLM

In the case of `COC(=O)[C@@H]1C[C@H](NC(=O)c2cc(-c3cnn(C)c3)cnc2N)CN1C(=O)c1cccc(-c2ccccc2)c1` [Example 686, methyl (2S,4S)-1-([1,1′-biphenyl]-3-carbonyl)-4-(2-amino-5-(1-methyl-1H-pyrazol-4-yl)nicotinamido)pyrrolidine-2-carboxylate], the IC50 was more than 1000 nM.

As to `CCOC(=O)C1CN(C(=O)c2cccc(-c3ccccc3)c2)CC1NC(=O)c1cc(-c2cnn(C)c2)cnc1N` (centres unmarked) [Example 688, ethyl 1-([1,1′-biphenyl]-3-carbonyl)-4-(2-amino-5-(1-methyl-1H-pyrazol-4-yl)nicotinamido)pyrrolidine-3-carboxylate], the IC50 is more than 1000 nM. Molecule `Cc1cc(-c2cc(F)ccc2Cl)ccc1C(=O)N1CC[C@@H](NC(=O)c2cc(-c3cnn(C)c3)cnc2N)C1` [Example 691, (R)-2-amino-N-(1-(2′-chloro-5′-fluoro-3-methyl-[1,1′-biphenyl]-4-carbonyl)pyrrolidin-3-yl)-5-(1-methyl-1H-pyrazol-4-yl)nicotinamide] had an IC50 of more than 1000 nM.

As to `Cc1cc(C(=O)N2CC[C@@H](NC(=O)c3cc(-c4cnn(C)c4)cnc3N)C2)ccc1-c1cc(F)ccc1Cl` [Example 692, (R)-2-amino-N-(1-(2′-chloro-5′-fluoro-2-methyl-[1,1′-biphenyl]-4-carbonyl)pyrrolidin-3-yl)-5-(1-methyl-1H-pyrazol-4-yl)nicotinamide], the IC50 is 10 to 100 nM. `Cn1cc(-c2cnc(N)c(C(=O)N[C@@H]3CCN(C(=O)c4ccc(-c5cc(F)ccc5Cl)cc4Cl)C3)c2)cn1` [Example 693, (R)-2-amino-N-(1-(2′,3-dichloro-5′-fluoro-[1,1′-biphenyl]-4-carbonyl)pyrrolidin-3-yl)-5-(1-methyl-1H-pyrazol-4-yl)nicotinamide] came in with an IC50 of more than 1000 nM.

As to `Cn1cc(-c2cnc(N)c(C(=O)N[C@@H]3CCN(C(=O)c4ccc(-c5ccc(F)cc5Cl)cc4Cl)C3)c2)cn1` [Example 694, (R)-2-amino-N-(1-(2′,3-dichloro-4′-fluoro-[1,1′-biphenyl]-4-carbonyl)pyrrolidin-3-yl)-5-(1-methyl-1H-pyrazol-4-yl)nicotinamide], the IC50 was more than 1000 nM. On to `Cn1cc(-c2cnc(N)c(C(=O)N[C@@H]3CCN(C(=O)[C@H]4C[C@@H]4c4ccccc4)C3)c2)cn1` [Example 705, 2-amino-5-(1-methyl-1H-pyrazol-4-yl)-N—((R)-1-((1S,2S)-2-phenylcyclopropane-1-carbonyl)pyrrolidin-3-yl)nicotinamide], for which the IC50 was more than 1000 nM. In the case of `Cn1cc(-c2cnc(N)c(C(=O)N[C@@H]3CCN(C(=O)c4ccc(F)cc4Cl)C3)c2)cn1` [Example 716, (R)-2-amino-N-(1-(2-chloro-4-fluorobenzoyl)pyrrolidin-3-yl)-5-(1-methyl-1H-pyrazol-4-yl)nicotinamide], the IC50 was more than 1000 nM. In the case of `Cn1cc(-c2cnc(N)c(C(=O)N[C@@H]3CCN(C(=O)c4ccc(-c5ccc(C#N)cc5)cc4)C3)c2)cn1` [Example 726, (R)-2-amino-N-(1-(4′-cyano-[1,1′-biphenyl]-4-carbonyl)pyrrolidin-3-yl)-5-(1-methyl-1H-pyrazol-4-yl)nicotinamide], the IC50 was 100 to 1000 nM.

Turning to `Cn1cc(-c2cnc(N)c(C(=O)N[C@@H]3CCN(C(=O)c4ccc(-c5cccc(CN)c5)cc4)C3)c2)cn1` [Example 727, (R)-2-amino-N-(1-(3′-(aminomethyl)-[1,1′-biphenyl]-4-carbonyl)pyrrolidin-3-yl)-5-(1-methyl-1H-pyrazol-4-yl)nicotinamide], the IC50 is 10 to 100 nM. The same measure for `Cn1cc(-c2cnc(N)c(C(=O)N[C@@H]3CCN(C(=O)c4ccc(-c5ccccc5)cc4N)C3)c2)cn1` [Example 728, (R)-2-amino-N-(1-(3-amino-[1,1′-biphenyl]-4-carbonyl)pyrrolidin-3-yl)-5-(1-methyl-1H-pyrazol-4-yl)nicotinamide]: 100 to 1000 nM; for `Cn1cc(-c2cnc(N)c(C(=O)N[C@@H]3CCN(C(=O)/C=C/c4ccc(-c5ccccc5)cc4)C3)c2)cn1` [Example 730, (R,E)-N-(1-(3-([1,1′-biphenyl]-4-yl)acryloyl)pyrrolidin-3-yl)-2-amino-5-(1-methyl-1H-pyrazol-4-yl)nicotinamide]: 100 to 1000 nM. `Cn1cc(-c2cnc(N)c(C(=O)N[C@@H]3CCN(C(=O)c4ccc(Oc5ccccc5)cc4)C3)c2)cn1` [Example 731, (R)-2-amino-5-(1-methyl-1H-pyrazol-4-yl)-N-(1-(4-phenoxybenzoyl)pyrrolidin-3-yl)nicotinamide] displayed an IC50 of 100 to 1000 nM. The molecule `Cn1cc(-c2cnc(N)c(C(=O)N[C@@H]3CCN(C(=O)c4cccc(Br)c4)C3)c2)cn1` [Example 733, (R)-2-amino-N-(1-(3-bromobenzoyl)pyrrolidin-3-yl)-5-(1-methyl-1H-pyrazol-4-yl)nicotinamide] came in with an IC50 of more than 1000 nM. `Cn1cc(-c2cnc(N)c(C(=O)NC[C@H]3CCCN3C(=O)c3ccc(-c4ccccc4)cc3)c2)cn1` [Example 736, (R)—N-((1-([1,1′-biphenyl]-4-carbonyl)pyrrolidin-2-yl)methyl)-2-amino-5-(1-methyl-1H-pyrazol-4-yl)nicotinamide] came in with an IC50 of more than 1000 nM. The molecule `Cn1cc(-c2cnc(N)c(C(=O)NC[C@@H]3CCN(C(=O)c4ccc(-c5ccccc5)cc4)C3)c2)cn1` [Example 738, (S)—N-((1-([1,1′-biphenyl]-4-carbonyl)pyrrolidin-3-yl)methyl)-2-amino-5-(1-methyl-1H-pyrazol-4-yl)nicotinamide] showed an IC50 of more than 1000 nM.

`Cn1cc(-c2cnc(N)c(C(=O)NC[C@@H]3CCN(C(=O)c4cccc(-c5ccccc5)c4)C3)c2)cn1` [Example 739] yielded an IC50 of more than 1000 nM.

For the molecule `Cn1cc(-c2cnc(N)c(C(=O)N[C@@H]3CCN(C(=O)c4ccc(-c5ccccc5)cc4)C3)n2)cn1` [Example 744, (R)—N-(1-([1,1′-biphenyl]-4-carbonyl)pyrrolidin-3-yl)-3-amino-6-(1-methyl-1H-pyrazol-4-yl)pyrazine-2-carboxamide], the IC50 lay within 100 to 1000 nM. As to `Nc1ncc(-c2ccccc2)cc1C(=O)N[C@@H]1CCN(C(=O)c2ccc(-c3ccc(F)cc3Cl)cc2)C1` [Example 775, (R)-2-amino-N-(1-(2′-chloro-4′-fluoro-[1,1′-biphenyl]-4-carbonyl)pyrrolidin-3-yl)-5-phenylnicotinamide], the IC50 lay within 100 to 1000 nM. The same measure for `CC(C)(c1ccc(-c2cnc(N)c(C(=O)N[C@@H]3CCN(C(=O)c4ccc(-c5ccccc5)cc4)C3)c2)cc1)N1CCN(S(=O)(=O)c2ccccc2[N+](=O)[O-])CC1` [Example 783, (R)—N-(1-([1,1′-biphenyl]-4-carbonyl)pyrrolidin-3-yl)-2-amino-5-(4-(2-(4-((2-nitrophenyl)sulfonyl)piperazin-1-yl)propan-2-yl)phenyl)nicotinamide]: 100 to 1000 nM; for `Cn1cc(-c2cnc(N)c(C(=O)N[C@@H]3CCN(C(=O)c4ccc(-c5ccc(Oc6ccc(N)nc6)cc5)cc4)C3)c2)cn1` [Example 813, (R)-2-amino-N-(1-(4′-((6-aminopyridin-3-yl)oxy)-[1,1′-biphenyl]-4-carbonyl)pyrrolidin-3-yl)-5-(1-methyl-1H-pyrazol-4-yl)nicotinamide]: 100 to 1000 nM. For `Cn1cc(-c2cnc(N)c(C(=O)N[C@@H]3CCN(C(=O)c4ccc(-c5ccc(Oc6nn[nH]n6)cc5)cc4)C3)c2)cn1` [Example 814, (R)—N-(1-(4′-((2H-tetrazol-5-yl)oxy)-[1,1′-biphenyl]-4-carbonyl)pyrrolidin-3-yl)-2-amino-5-(1-methyl-1H-pyrazol-4-yl)nicotinamide], the IC50 lay in the range of 100 to 1000 nM. For the molecule `Cn1cc(-c2cnc(N)c(C(=O)N[C@@H]3CCN(C(=O)c4ccc(/C=C/c5ccncc5)cc4)C3)c2)cn1` [Example 824, (R,E)-2-amino-5-(1-methyl-1H-pyrazol-4-yl)—N-(1-(4-(2-(pyridin-4-yl)vinyl)benzoyl)pyrrolidin-3-yl)nicotinamide], the IC50 fell in the range of 100 to 1000 nM.

Consider `Cn1cc(-c2cnc(N)c(C(=O)N[C@@H]3CCN(C(=O)c4ccc(/C=C/c5ccccn5)cc4)C3)c2)cn1` [Example 825, (R,E)-2-amino-5-(1-methyl-1H-pyrazol-4-yl)—N-(1-(4-(2-(pyridin-2-yl)vinyl)benzoyl)pyrrolidin-3-yl)nicotinamide], for which the IC50 is 100 to 1000 nM. `C/C(=C\c1ccc(C(=O)N2CC[C@@H](NC(=O)c3cc(-c4cnn(C)c4)cnc3N)C2)cc1)c1ccccc1` [Example 826, (R,E)-2-amino-5-(1-methyl-1H-pyrazol-4-yl)-N-(1-(4-(2-phenylprop-1-en-1-yl)benzoyl)pyrrolidin-3-yl)nicotinamide] showed an IC50 of more than 1000 nM. `Cn1cc(-c2cnc(N)c(C(=O)N[C@@H]3CCN(C(=O)c4ccc(/C=C/C5CCNCC5)cc4)C3)c2)cn1` [Example 827, (R,E)-2-amino-5-(1-methyl-1H-pyrazol-4-yl)-N-(1-(4-(2-(piperidin-4-yl)vinyl)benzoyl)pyrrolidin-3-yl)nicotinamide] returned an IC50 of more than 1000 nM. The result for `COC(=O)/C=C/c1ccc(C(=O)N2CC[C@@H](NC(=O)c3cc(-c4cnn(C)c4)cnc3N)C2)cc1` [Example 828, methyl (R,E)-3-(4-(3-(2-amino-5-(1-methyl-1H-pyrazol-4-yl)nicotinamido)pyrrolidine-1-carbonyl)phenyl)acrylate] reads more than 1000 nM; that for `Cn1cc(-c2cnc(N)c(C(=O)N[C@@H]3C[C@H](C(=O)O)N(C(=O)c4ccc(-c5ccc(F)cc5Cl)cc4)C3)c2)cn1` [Example 839, (2R,4R)-4-(2-amino-5-(1-methyl-1H-pyrazol-4-yl)nicotinamido)-1-(2′-chloro-4′-fluoro-[1,1′-biphenyl]-4-carbonyl)pyrrolidine-2-carboxylic acid], more than 1000 nM; that for “(R)-2-amino-N-(1-(3,5-dihydroxy-2-naphthoyl)pyrrolidin-3-yl)-5-(1-methyl-1H-pyrazol-4-yl)nicotinamide [Example 668]”, more than 1000 nM.
